From patent publication US9695155B2, “Herbicidal substituted pyrimidinyloxy benzene compounds” (E. I. DU PONT DE NEMOURS AND COMPANY, priority 2013, dated 2017)

Legend:
barnyardgrass [1] = experiment: Test A preemergence; type: in vivo, Echinochloa crus-galli; conditions: 0 to 100 scale where 0 is no effect and 100 is complete control
How it was run: (§1)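 Injury scores run from 0, no effect, to 100, complete control, judged by eye against untreated plants roughly 10 days after treatment. Chemicals carried a surfactant in a non-phytotoxic solvent and went onto loam–sand soil preemergence or onto one- to two-leaf seedlings postemergence.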

pigweed = experiment: Test A postemergence; type: in vivo, Amaranthus retroflexus
How it was run: as §1

rice = experiment: Test B flooded paddy test; type: in vivo, Oryza sativa; conditions: Oryza sativa; Flood, 250 g ai/ha; 0 to 100 scale where 0 is no effect and 100 is complete control; read-out: Plant response rating, Rice
How it was run: (§2)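 Plants were grown to the 2-leaf stage, then pots were flooded to 3 cm above the soil and compounds were applied directly into the paddy water. That depth was held throughout, and after 13 to 15 days in the greenhouse injury was rated visually against controls on a 0–100 scale (0 no effect, 100 complete control).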

sedge, umbrella = experiment: Test B flooded paddy test; type: in vivo, Cyperus difformis; conditions: Flood, 250 g ai/ha, 0 to 100 scale where 0 is no effect and 100 is complete control
How it was run: as §2

blackgrass = experiment: Test C postemergence; type: in vivo, Alopecurus myosuroides; conditions: Alopecurus myosuroides, post-emergence; for pest or weed control at 16 g/ha: 16 g ai/ha, 0 is no effect, 100 is complete control, read-out: Plant response rating (0 to 100), Blackgrass; for pest or weed control at 16 g/ha / pest or weed control at 125 g/ha: postemergence; for pest or weed control at 125 g/ha: 125 g ai/ha, visual rating; for pest or weed control at 125 g/ha / pest or weed control at 31 g/ha / pest or weed control at 62 g/ha: scale 0 to 100 (0 no effect, 100 complete control), read-out: Plant response rating, Blackgrass; for pest or weed control at 31 g/ha / pest or weed control at 62 g/ha: Postemergence; for pest or weed control at 31 g/ha: 31 g ai/ha, 13 to 15 days; for pest or weed control at 62 g/ha: 62 g ai/ha
How it was run: (§3)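 Preemergence: seeds sown in a loam soil–sand blend and sprayed with test chemical in a non-phytotoxic solvent mixture containing surfactant. Postemergence: plants at 2 to 18 cm (1- to 4-leaf stage) in peat-based medium, treated with the same formulation. Greenhouse 13 to 15 days, then visual rating 0 (no effect) to 100 (complete control).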

Italian ryegrass = experiment: Test C postemergence; type: in vivo, Lolium multiflorum; conditions: Lolium multiflorum, post-emergence; for pest or weed control at 16 g/ha: 16 g ai/ha, 0 is no effect, 100 is complete control, read-out: Plant response rating (0 to 100), Ryegrass, Italian; for pest or weed control at 16 g/ha / pest or weed control at 125 g/ha: postemergence; for pest or weed control at 125 g/ha: 125 g ai/ha, visual rating; for pest or weed control at 125 g/ha / pest or weed control at 62 g/ha: scale 0 to 100 (0 no effect, 100 complete control), read-out: Plant response rating, Ryegrass, Italian; for pest or weed control at 62 g/ha: Postemergence, 62 g ai/ha
How it was run: as §3

galium = experiment: Test C postemergence; type: in vivo, Galium aparine; conditions: Galium, post-emergence; for pest or weed control at 16 g/ha: 16 g ai/ha, 0 is no effect, 100 is complete control, read-out: Plant response rating (0 to 100), Galium; for pest or weed control at 16 g/ha / pest or weed control at 125 g/ha: postemergence; for pest or weed control at 125 g/ha: 125 g ai/ha, visual rating; for pest or weed control at 125 g/ha / pest or weed control at 62 g/ha: scale 0 to 100 (0 no effect, 100 complete control), read-out: Plant response rating, Galium; for pest or weed control at 62 g/ha: Postemergence, 62 g ai/ha
How it was run: as §3

large (Lg) crabgrass = experiment: Test C postemergence; type: in vivo, Digitaria sanguinalis; conditions: Digitaria sanguinalis, post-emergence; for pest or weed control at 16 g/ha: 16 g ai/ha, 0 is no effect, 100 is complete control, read-out: Plant response rating (0 to 100), Crabgrass, Large; for pest or weed control at 16 g/ha / pest or weed control at 125 g/ha: postemergence; for pest or weed control at 125 g/ha: 125 g ai/ha, visual rating; for pest or weed control at 125 g/ha / pest or weed control at 62 g/ha: scale 0 to 100 (0 no effect, 100 complete control), read-out: Plant response rating, Crabgrass, Large; for pest or weed control at 62 g/ha: Postemergence, 62 g ai/ha
How it was run: as §3

lambsquarters = experiment: Test C postemergence; type: in vivo, Chenopodium album; conditions: Chenopodium album, post-emergence; for pest or weed control at 16 g/ha: 16 g ai/ha, 0 is no effect, 100 is complete control, read-out: Plant response rating (0 to 100), Lambsquarters; for pest or weed control at 16 g/ha / pest or weed control at 125 g/ha: postemergence; for pest or weed control at 125 g/ha: 125 g ai/ha, visual rating; for pest or weed control at 125 g/ha / pest or weed control at 62 g/ha: scale 0 to 100 (0 no effect, 100 complete control), read-out: Plant response rating, Lambsquarters; for pest or weed control at 62 g/ha: Postemergence, 62 g ai/ha
How it was run: as §3

yellow nutsedge = experiment: Test C postemergence; type: in vivo, Cyperus esculentus; conditions: Cyperus, post-emergence; for pest or weed control at 16 g/ha: 16 g ai/ha, 0 is no effect, 100 is complete control, read-out: Plant response rating (0 to 100), Nutsedge, Yellow; for pest or weed control at 16 g/ha / pest or weed control at 125 g/ha: postemergence; for pest or weed control at 125 g/ha: 125 g ai/ha, visual rating; for pest or weed control at 125 g/ha / pest or weed control at 62 g/ha: scale 0 to 100 (0 no effect, 100 complete control), read-out: Plant response rating, Nutsedge, Yellow; for pest or weed control at 62 g/ha: Postemergence, 62 g ai/ha
How it was run: as §3

ragweed = experiment: Test C postemergence; type: in vivo, Ambrosia elatior; conditions: Ambrosia artemisiifolia, post-emergence; for pest or weed control at 16 g/ha: 16 g ai/ha, 0 is no effect, 100 is complete control, read-out: Plant response rating (0 to 100), Ragweed; for pest or weed control at 16 g/ha / pest or weed control at 125 g/ha: postemergence; for pest or weed control at 125 g/ha: 125 g ai/ha, visual rating; for pest or weed control at 125 g/ha / pest or weed control at 62 g/ha: scale 0 to 100 (0 no effect, 100 complete control), read-out: Plant response rating, Ragweed; for pest or weed control at 62 g/ha: Postemergence, 62 g ai/ha
How it was run: as §3

soybean = experiment: Test C postemergence; type: in vivo, Glycine max; conditions: Glycine max, post-emergence; for Soybean plant response rating (crop injury, 0-100 scale) at 16 g/ha: 16 g ai/ha, 0 is no effect, 100 is complete control; for Soybean plant response rating (crop injury, 0-100 scale) at 16 g/ha / Soybean plant response rating (crop injury, 0-100 scale) at 125 g/ha: postemergence; for Soybean plant response rating (crop injury, 0-100 scale) at 125 g/ha: 125 g ai/ha, visual rating, read-out: Plant response rating, Soybean; for Soybean plant response rating (crop injury, 0-100 scale) at 125 g/ha / Soybean plant response rating (crop injury, 0-100 scale) at 62 g/ha: scale 0 to 100 (0 no effect, 100 complete control); for Soybean plant response rating (crop injury, 0-100 scale) at 62 g/ha: Postemergence, 62 g ai/ha
How it was run: as §3

barnyardgrass [2] = experiment: Test C postemergence; type: in vivo, Echinochloa crus-galli; conditions: Echinochloa crus-galli, post-emergence; for pest or weed control at 16 g/ha: 16 g ai/ha, 0 is no effect, 100 is complete control, read-out: Plant response rating (0 to 100), Barnyardgrass; for pest or weed control at 16 g/ha / pest or weed control at 125 g/ha: postemergence; for pest or weed control at 125 g/ha: 125 g ai/ha, visual rating; for pest or weed control at 125 g/ha / pest or weed control at 31 g/ha / pest or weed control at 62 g/ha: scale 0 to 100 (0 no effect, 100 complete control), read-out: Plant response rating, Barnyardgrass; for pest or weed control at 31 g/ha / pest or weed control at 62 g/ha: Postemergence; for pest or weed control at 31 g/ha: 31 g ai/ha, 13 to 15 days; for pest or weed control at 62 g/ha: 62 g ai/ha
How it was run: as §3

SMILES	plant injury at 250 g/ha (rice)	pest or weed control at 16 g/ha (blackgrass)	pest or weed control at 125 g/ha (blackgrass)	pest or weed control at 31 g/ha (blackgrass)	pest or weed control at 62 g/ha (blackgrass)	pest or weed control at 16 g/ha (Italian ryegrass)	pest or weed control at 125 g/ha (Italian ryegrass)	pest or weed control at 62 g/ha (Italian ryegrass)	pest or weed control at 16 g/ha (galium)	pest or weed control at 125 g/ha (galium)	pest or weed control at 62 g/ha (galium)	pest or weed control at 16 g/ha (large (Lg) crabgrass)	pest or weed control at 125 g/ha (large (Lg) crabgrass)	pest or weed control at 62 g/ha (large (Lg) crabgrass)	pest or weed control at 16 g/ha (lambsquarters)	pest or weed control at 125 g/ha (lambsquarters)	pest or weed control at 62 g/ha (lambsquarters)	pest or weed control at 16 g/ha (yellow nutsedge)	pest or weed control at 125 g/ha (yellow nutsedge)	pest or weed control at 62 g/ha (yellow nutsedge)	other results
Fc1cccc(Oc2ncc(Cl)cn2)c1-n1cc(C(F)F)nn1 [Compound 141, 5-chloro-2-[2-[4-(difluoromethyl)-1H-1,2,3-triazol-1-yl]-3-fluorophenoxy]pyrimidine]	45%	5%	60%	35%	35%	0%	40%	5%	90%	100%	98%	5%	45%	10%	85%	100%	100%	10%	15%	15%	pest or weed control at 31 g/ha (barnyardgrass [1]; Echinochloa crus-galli, pre-emergence, 240 h, 31 g ai/ha, visual, approximately 10 days, read-out: Plant response rating, Barnyardgrass): 90%; pest or weed control at 125 g/ha (barnyardgrass [1]; Echinochloa crus-galli, pre-emergence, 240 h, 125 g ai/ha, read-out: Plant response rating, Barnyardgrass): 100%; pest or weed control at 31 g/ha (pigweed; Amaranthus retroflexus, post-emergence, 31 g ai/ha, 0 to 100 scale, 0 no effect, 100 complete control, read-out: Plant response rating, Pigweed): 100%; pest or weed control at 125 g/ha (pigweed; Amaranthus retroflexus, post-emergence, 240 h, 125 g ai/ha, 0 to 100 scale where 0 is no effect and 100 is complete control, read-out: Pigweed plant response rating): 100%; pest or weed control at 250 g/ha (sedge, umbrella; Cyperus difformis, read-out: Plant response rating, Sedge, Umbrella): 90%; pest or weed control at 16 g/ha (ragweed): 80%; pest or weed control at 125 g/ha (ragweed): 90%; pest or weed control at 62 g/ha (ragweed): 98%; Soybean plant response rating (crop injury, 0-100 scale) at 16 g/ha (soybean): 85%; Soybean plant response rating (crop injury, 0-100 scale) at 125 g/ha (soybean): 95%; Soybean plant response rating (crop injury, 0-100 scale) at 62 g/ha (soybean): 90%; pest or weed control at 16 g/ha (barnyardgrass [2]): 15%; pest or weed control at 125 g/ha (barnyardgrass [2]): 40%; pest or weed control at 31 g/ha (barnyardgrass [2]): 15%; pest or weed control at 62 g/ha (barnyardgrass [2]): 20%
N#Cc1cccc(Oc2ncc(Cl)cn2)c1-n1cc(SC(F)(F)F)cn1 [Compound 134, 3-[(5-chloro-2-pyrimidinyl)oxy]-2-[4-(trifluoromethylthio)-1-pyrazolyl]benzonitrile]	0%	5%	10%	25%	5%	10%	0%	5%	65%	85%	85%	5%	15%	10%	5%	65%	75%	0%	10%	10%	Plant response rating, Barnyardgrass (barnyardgrass [1]; 125 g ai/ha): 70; Barnyardgrass plant response rating (barnyardgrass [1]; 500 g ai/ha): 100; Pigweed plant response rating (pigweed; 125 g ai/ha, 0 to 100 scale where 0 is no effect and 100 is complete control): 100; Plant response rating, Pigweed (pigweed; 500 g ai/ha, 0 to 100 scale where 0 is no effect and 100 is complete control): 100; Plant response rating, Sedge, Umbrella (sedge, umbrella): 30; pest or weed control at 16 g/ha (ragweed): 10%; pest or weed control at 125 g/ha (ragweed): 55%; pest or weed control at 62 g/ha (ragweed): 55%; Soybean plant response rating (crop injury, 0-100 scale) at 16 g/ha (soybean): 60%; Soybean plant response rating (crop injury, 0-100 scale) at 125 g/ha (soybean): 90%; Soybean plant response rating (crop injury, 0-100 scale) at 62 g/ha (soybean): 65%; pest or weed control at 16 g/ha (barnyardgrass [2]): 0%; pest or weed control at 125 g/ha (barnyardgrass [2]): 10%; pest or weed control at 31 g/ha (barnyardgrass [2]): 5%; pest or weed control at 62 g/ha (barnyardgrass [2]): 5%
